Test results published in patent US9416128B2, “Fused heterocyclic compounds as ion channel modulators” (Gilead Sciences, Inc., priority 2013, dated 2016).

Assays:
[1] = target: wild-type human cardiac sodium channel, hNaV 1.5 (Late INa) (Homo sapiens, UniProt Q14524); assay: Late INa screening assay (whole cell patch clamp, QPatch, Tefluthrin-induced late current); format: cell-based; conditions: HEK293, % inhibition (percent block of late INa) at 1 uM; HEK293 hNaV1.5; 10 μM Tefluthrin; read-out: Nav1.5 Late INa 1 uM
Protocol: The cardiac late sodium current (Late INa) and peak sodium current (Peak INa) assays are performed on an automated electrophysiology platform, QPatch 16X or QPatch HT (Sophion Bioscience, Copenhagen, Denmark) using the whole cell patch clamp technique to measure currents through the cell membrane. The assay uses an HEK293 (human embryonic kidney) cell line heterologously expressing the wild-type human cardiac sodium channel, hNaV 1.5, purchased from Millipore (Billerica, Mass.). No beta subunits were coexpressed with the Na channel alpha subunit. Cells are maintained with standard tissue culture procedures and stable channel expression is maintained with 400 μg/mL Geneticin in the culture medium. Experiments are carried out at 23-25° C.
For both the Late INa and Peak INa assays, series resistance compensation is set to 100% and series resistance and whole-cell compensation are performed automatically. Currents are digitized at 25 kHz and low-pass filtered at 5 kHz and stored in the Sophion Bioscience Oracle database (Sophion Bioscience, Copenhagen, Denmark). Analysis is performed using QPatch Assay software and data are compiled in Excel 2010 (Microsoft, Seattle, Wash., U.S.A.).
Compound stocks are routinely made by the Gilead Sample Bank in vials to 10 mM in dimethyl sulfoxide (DMSO). In some cases, when compounds are not soluble in DMSO, they are made in 100% ethanol. Stocks are sonicated as necessary. The extracellular solution for screening Late INa is composed of: 140 mM NaCl, 4 mM KCl, 1.8 mM CaCl2, 1 mM MgCl2, 10 mM HEPES and 10 mM Dextrose with pH adjusted to 7.35 using NaOH. The intracellular solution contains: 105 mM CsF, 20 mM CsCl, 10 NaF, 2 mM EGTA, 10 mM HEPES and 10 mM Dextrose with pH adjusted to 7.35 with CsOH. Compounds are diluted in extracellular solution using a MicroLab Nimbus (Hamilton Robotics, Reno, Nev.) to between 0.3 and 3 μM in glass vials and transferred to glass well plates before robotic addition to the cells. The 0 mM Na extracellular solution (0Na-ECF) used at the end of each experiment for the Late INa and Peak INa assays to measure baseline current contains: 140 Choline-Cl; 4 mM KCl, 1.8 mM CaCl2; 1 mM MgCl2; 10 mM HEPES and 10 mM Dextrose with pH was adjusted to 7.35 with CsOH.
For the Late INa assay, sodium channels are activated every 10 seconds (0.1 Hz) by depolarizing the cell membrane to −20 mV for 250 milliseconds (ms) from a holding potential of −120 mV.
Compounds were tested to determine their activity in blocking the late sodium current. Late INa was generated by adding 10 μM Tefluthrin (pyrethroid) to the extracellular solution. For the purposes of the screening, Late INa is defined as the mean current between 240 ms and 265 ms during the voltage step to −20 mV. After establishing the whole cell recording configuration, Late INa activator is added to each well 4 times over a 15 minute period so that the late component of the Na current reaches a stable value. Compounds were then added (typically at 0.3 or 1 μM), in the presence of the Late INa activator, with 3 additions over the course of 5 minutes. Measurements were made at the end of exposure to the third compound addition and values were normalized to the current level when all Na^+ was removed from the extracellular solution after two additions of 0Na-ECF.
Results are reported as percent block of late INa and results were analyzed by incorporating rundown correction for the Late INa.

hNaV1.2 (SCN2A) = target: T1, hNaV1.2 (SCN2A) (Homo sapiens, UniProt Q99250); assay: Use-dependent inhibition of the CNS NaV1.2 sodium channel; format: cell-based; conditions: HEK-293, % inhibition, 25 Hz; for inhibition at 1 µM: use-dependent block at 1 uM, read-out: Nav1.2 UDB 25 Hz 1 uM; for inhibition at 10 µM: use-dependent block at 10 uM, read-out: Nav1.2 UDB 25 Hz 10 uM
T1 construct: expressed in transfected cells
Protocol: HEK-293 cells stably expressing wild-type (WT) hNaV1.2 (SCN2A NCBI # NM_021007.2, SCN1B NCBI # NM_001037.4, SCN2B NCBI # NM_004588.2) were used to record INa. Cells are maintained with standard tissue culture procedures and stable channel expression is maintained with 800 ug/mL G418 and 3 ug/mL Puromycin in the culture medium. Unless otherwise noted, all reagents are purchased from Sigma-Aldrich (St Louis, Mo., U.S.A.).
Assays measuring Use-Dependent Block (UDB) of NaV1.2 are performed on an automated electrophysiology platform, QPatch 16X or QPatch HT (Sophion Bioscience, Copenhagen, Denmark), using the whole cell patch clamp technique to measure currents through the cell membrane. Series resistance compensation is set to 100% and series resistance and whole-cell compensation are performed automatically. Currents stored in the Sophion Bioscience Oracle database (Sophion Bioscience, Copenhagen, Denmark). Analysis is performed using QPatch Assay software and data are compiled in Excel 2010 (Microsoft, Seattle, Wash., U.S.A.). The internal (pipette) solution consists of (in mM) 105 CsF, 10 NaF, 20 CsCl, 2 EGTA, 10 HEPES, 10 Dextrose with a pH of 7.35 and osmolarity of 300 mOsmol/kg. The external (bath) solution contains in (mM): 145 NaCl, 4 KCl, 1.8 CaCl2, 1 MgCl2, 10 dextrose, 10 HEPES, with a pH of 7.35 and osmolarity of 310 mOsmol/kg. Experiments are carried out at 23-25° C.
Compound stocks are routinely made by the Gilead Sample Bank in vials to 10 mM in dimethyl sulfoxide (DMSO). In some cases, when compounds are not soluble in DMSO, they are made in 100% ethanol. Stocks are sonicated as necessary. […]
Cells are allowed to stabilize for 10 min after establishment of the whole-cell configuration before current is measured. The test compound is applied 2 times at 60 second intervals. After the second compound addition, a 200 second wait period was imposed to allow for equilibration. Leak currents are subtracted by using an online P/4 procedure and all currents are low-pass Bessel filtered at 5 kHz and digitized at […].
Results are presented as mean percentage inhibition.
Use-dependent block of NaV1.2 peak current is measured during pulse number 20 of a voltage pulse train (0 mV, 20 ms, 20 pulses, 25 Hz) from a holding potential of −120 mV.
Currents are normalized to the peak current recorded in response to the first pulse in each frequency train. The voltage protocol for UDB was performed in the absence and presence of compound and percentage inhibition was calculated with respect to the compound free condition.
Data analysis is performed using QPatch Assay Software 4.0, and Excel 2002 (Microsoft, Seattle, Wash., U.S.A.).

wild-type human cardiac sodium channel, hNaV 1.5 (Late INa), sequence (Q14524 whole entry): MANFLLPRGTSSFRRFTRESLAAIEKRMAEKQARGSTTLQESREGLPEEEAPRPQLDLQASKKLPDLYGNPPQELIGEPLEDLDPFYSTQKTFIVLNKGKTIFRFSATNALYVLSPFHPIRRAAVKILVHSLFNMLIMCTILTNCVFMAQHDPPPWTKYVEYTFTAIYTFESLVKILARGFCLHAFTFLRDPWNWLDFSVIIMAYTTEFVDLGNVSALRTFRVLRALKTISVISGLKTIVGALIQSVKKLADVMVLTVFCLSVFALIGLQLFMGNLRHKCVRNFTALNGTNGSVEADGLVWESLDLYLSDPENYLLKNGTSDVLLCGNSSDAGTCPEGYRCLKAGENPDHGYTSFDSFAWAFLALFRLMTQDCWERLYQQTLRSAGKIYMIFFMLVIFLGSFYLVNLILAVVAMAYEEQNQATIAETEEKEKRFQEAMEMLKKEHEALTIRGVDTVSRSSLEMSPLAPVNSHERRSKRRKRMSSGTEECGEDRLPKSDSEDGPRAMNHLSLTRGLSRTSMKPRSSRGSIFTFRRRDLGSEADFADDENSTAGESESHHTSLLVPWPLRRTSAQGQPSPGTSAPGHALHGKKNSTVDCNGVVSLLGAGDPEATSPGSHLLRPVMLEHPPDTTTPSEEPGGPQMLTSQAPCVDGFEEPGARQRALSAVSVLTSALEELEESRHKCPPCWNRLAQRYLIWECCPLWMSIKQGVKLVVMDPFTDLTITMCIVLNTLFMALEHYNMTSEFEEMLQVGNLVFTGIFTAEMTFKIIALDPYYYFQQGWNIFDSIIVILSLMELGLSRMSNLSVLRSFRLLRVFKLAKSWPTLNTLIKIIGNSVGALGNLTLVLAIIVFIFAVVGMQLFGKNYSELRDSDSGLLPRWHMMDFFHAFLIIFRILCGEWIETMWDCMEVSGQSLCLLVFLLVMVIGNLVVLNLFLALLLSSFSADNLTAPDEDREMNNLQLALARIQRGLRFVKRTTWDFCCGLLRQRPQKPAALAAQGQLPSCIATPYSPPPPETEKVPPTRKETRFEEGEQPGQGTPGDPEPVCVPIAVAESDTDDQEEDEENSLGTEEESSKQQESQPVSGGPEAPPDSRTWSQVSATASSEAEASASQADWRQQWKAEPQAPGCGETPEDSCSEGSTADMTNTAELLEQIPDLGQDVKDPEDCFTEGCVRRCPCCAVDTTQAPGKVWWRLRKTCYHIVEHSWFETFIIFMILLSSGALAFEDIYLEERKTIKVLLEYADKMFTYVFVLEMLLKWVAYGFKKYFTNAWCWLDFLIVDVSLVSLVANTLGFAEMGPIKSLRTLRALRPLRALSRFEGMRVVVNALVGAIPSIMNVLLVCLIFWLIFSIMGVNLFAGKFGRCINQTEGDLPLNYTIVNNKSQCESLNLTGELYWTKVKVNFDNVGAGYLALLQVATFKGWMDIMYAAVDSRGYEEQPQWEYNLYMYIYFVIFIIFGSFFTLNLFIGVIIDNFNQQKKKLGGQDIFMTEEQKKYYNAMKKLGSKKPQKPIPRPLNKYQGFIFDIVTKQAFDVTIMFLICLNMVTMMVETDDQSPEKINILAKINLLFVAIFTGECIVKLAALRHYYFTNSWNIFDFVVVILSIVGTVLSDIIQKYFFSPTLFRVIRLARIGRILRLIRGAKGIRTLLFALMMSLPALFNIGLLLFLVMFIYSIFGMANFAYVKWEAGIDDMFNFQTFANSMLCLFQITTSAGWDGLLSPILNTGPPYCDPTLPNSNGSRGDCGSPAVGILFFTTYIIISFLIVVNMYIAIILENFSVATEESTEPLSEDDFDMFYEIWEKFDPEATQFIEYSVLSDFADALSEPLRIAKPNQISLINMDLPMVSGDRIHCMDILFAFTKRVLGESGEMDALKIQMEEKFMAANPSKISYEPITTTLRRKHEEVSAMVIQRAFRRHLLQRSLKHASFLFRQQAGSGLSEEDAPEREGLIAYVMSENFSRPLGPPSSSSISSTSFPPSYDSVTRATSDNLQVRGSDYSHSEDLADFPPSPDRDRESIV
T1 sequence (Q99250 whole entry): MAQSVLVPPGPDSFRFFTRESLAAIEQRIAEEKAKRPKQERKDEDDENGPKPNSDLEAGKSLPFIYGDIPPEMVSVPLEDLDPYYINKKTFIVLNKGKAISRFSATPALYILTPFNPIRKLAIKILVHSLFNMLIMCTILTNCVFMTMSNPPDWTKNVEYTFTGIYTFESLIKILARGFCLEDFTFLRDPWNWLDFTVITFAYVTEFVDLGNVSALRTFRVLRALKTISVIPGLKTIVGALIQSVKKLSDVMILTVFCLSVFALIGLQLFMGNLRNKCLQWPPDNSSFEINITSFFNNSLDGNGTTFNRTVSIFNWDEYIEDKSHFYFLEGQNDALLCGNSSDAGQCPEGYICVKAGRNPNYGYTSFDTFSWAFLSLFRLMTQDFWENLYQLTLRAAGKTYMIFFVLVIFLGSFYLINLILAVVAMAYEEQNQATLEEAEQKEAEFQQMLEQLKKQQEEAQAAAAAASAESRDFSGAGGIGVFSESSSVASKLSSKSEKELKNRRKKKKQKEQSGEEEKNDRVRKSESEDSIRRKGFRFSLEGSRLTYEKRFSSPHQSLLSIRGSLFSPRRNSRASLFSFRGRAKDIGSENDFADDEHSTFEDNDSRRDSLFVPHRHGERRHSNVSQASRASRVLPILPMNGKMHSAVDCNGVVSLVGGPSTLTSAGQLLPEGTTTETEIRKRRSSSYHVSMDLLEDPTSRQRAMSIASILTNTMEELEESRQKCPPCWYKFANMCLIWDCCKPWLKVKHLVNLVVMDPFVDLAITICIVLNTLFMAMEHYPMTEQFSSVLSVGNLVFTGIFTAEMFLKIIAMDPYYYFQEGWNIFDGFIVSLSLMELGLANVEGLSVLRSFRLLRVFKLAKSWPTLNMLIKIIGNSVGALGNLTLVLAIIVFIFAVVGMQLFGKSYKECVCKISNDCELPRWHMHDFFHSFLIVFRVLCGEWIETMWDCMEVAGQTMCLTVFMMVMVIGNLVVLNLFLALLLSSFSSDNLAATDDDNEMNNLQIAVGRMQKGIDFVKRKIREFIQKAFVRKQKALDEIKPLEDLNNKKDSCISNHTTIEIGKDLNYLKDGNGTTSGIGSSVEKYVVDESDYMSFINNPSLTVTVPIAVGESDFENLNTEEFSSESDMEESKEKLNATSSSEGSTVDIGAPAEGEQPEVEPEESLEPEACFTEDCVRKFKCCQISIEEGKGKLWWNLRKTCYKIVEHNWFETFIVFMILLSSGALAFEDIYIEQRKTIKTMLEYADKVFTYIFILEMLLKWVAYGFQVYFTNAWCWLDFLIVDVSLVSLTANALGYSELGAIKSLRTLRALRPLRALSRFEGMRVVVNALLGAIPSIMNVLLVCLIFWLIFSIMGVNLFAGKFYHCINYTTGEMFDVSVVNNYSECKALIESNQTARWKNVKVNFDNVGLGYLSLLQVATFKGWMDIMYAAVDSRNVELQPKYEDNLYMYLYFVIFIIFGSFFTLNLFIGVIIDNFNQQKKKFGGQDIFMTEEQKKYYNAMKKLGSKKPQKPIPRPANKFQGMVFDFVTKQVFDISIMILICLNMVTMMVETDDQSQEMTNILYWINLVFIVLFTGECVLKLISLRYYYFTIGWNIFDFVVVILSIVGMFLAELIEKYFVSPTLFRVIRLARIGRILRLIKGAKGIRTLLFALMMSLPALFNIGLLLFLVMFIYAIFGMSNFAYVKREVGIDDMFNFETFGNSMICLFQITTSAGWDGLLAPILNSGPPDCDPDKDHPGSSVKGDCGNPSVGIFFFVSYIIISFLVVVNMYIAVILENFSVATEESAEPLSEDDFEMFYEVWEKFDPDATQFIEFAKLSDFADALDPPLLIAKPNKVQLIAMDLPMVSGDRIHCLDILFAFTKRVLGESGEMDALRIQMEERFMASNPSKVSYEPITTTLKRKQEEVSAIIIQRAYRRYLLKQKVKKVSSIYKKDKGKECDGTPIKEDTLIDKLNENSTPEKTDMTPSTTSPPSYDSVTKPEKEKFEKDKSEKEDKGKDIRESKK
T1 sequence (Q07699 19-218 partner): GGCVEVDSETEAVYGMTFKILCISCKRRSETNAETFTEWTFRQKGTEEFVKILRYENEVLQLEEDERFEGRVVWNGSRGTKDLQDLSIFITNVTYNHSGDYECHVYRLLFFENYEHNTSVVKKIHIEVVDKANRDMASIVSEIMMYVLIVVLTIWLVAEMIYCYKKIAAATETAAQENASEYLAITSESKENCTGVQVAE
T1 sequence (O60939 30-215 partner): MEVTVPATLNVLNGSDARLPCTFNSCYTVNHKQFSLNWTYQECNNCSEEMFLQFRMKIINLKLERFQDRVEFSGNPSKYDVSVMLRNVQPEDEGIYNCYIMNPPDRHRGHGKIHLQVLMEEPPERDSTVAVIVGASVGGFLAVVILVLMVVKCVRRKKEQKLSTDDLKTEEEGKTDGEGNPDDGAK

| SMILES | inhibition at 1 µM [1] [%] | inhibition at 1 µM (hNaV1.2 (SCN2A)) [%] | inhibition at 10 µM (hNaV1.2 (SCN2A)) [%] |
| --- | --- | --- | --- |
| COc1cc(OC(F)(F)F)ccc1-c1ccc2c(c1)CN(CCc1ncccn1)C(=O)O2 [Example 18, 6-(2-methoxy-4-(trifluoromethoxy)phenyl)-3-(2-(pyrimidin-2-yl)ethyl)-3,4-dihydro-2H-benzo[e][1,3]oxazin-2-one] | 31.4 | 9.1 | 54.9 |
| CCCOc1cc(C(F)(F)F)ccc1-c1ccc2c(c1)CN(CCc1ncccn1)C(=O)O2 [Example 19, 6-(2-propoxy-4-(trifluoromethyl)phenyl)-3-(2-(pyrimidin-2-yl)ethyl)-3,4-dihydro-2H-benzo[e][1,3]oxazin-2-one] | 68 | 30.6 | 64 |
| O=C1Oc2ccc(-c3ccc(OC(F)(F)F)cc3)cc2CN1Cc1ccccn1 [Example 20, 3-(pyridin-2-ylmethyl)-6-(4-(trifluoromethoxy)phenyl)-3,4-dihydro-2H-benzo[e][1,3]oxazin-2-one] | 53.7 | 30.2 | 69.8 |
| O=C1Oc2ccc(-c3ccc(OC(F)(F)F)cc3F)cc2CN1Cc1ccccn1 [Example 21, 6-(2-fluoro-4-(trifluoromethoxy)phenyl)-3-(pyridin-2-ylmethyl)-3,4-dihydro-2H-benzo[e][1,3]oxazin-2-one] | 44.7 | < 5 | 59.4 |
| COc1cc(OC(F)(F)F)ccc1-c1ccc2c(c1)CN(Cc1ccccn1)C(=O)O2 [Example 22, 6-(2-methoxy-4-(trifluoromethoxy)phenyl)-3-(pyridin-2-ylmethyl)-3,4-dihydro-2H-benzo[e][1,3]oxazin-2-one] | 48.3 | < 5 | 55.6 |
| Cc1cc(OC(F)(F)F)ccc1-c1ccc2c(c1)CN(Cc1ccccn1)C(=O)O2 [Example 23, 6-(2-methyl-4-(trifluoromethoxy)phenyl)-3-(pyridin-2-ylmethyl)-3,4-dihydro-2H-benzo[e][1,3]oxazin-2-one] | 30.5 | < 5 | 56 |
| O=C1Oc2ccc(-c3ccc(C(F)(F)F)cc3)cc2CN1Cc1ccccn1 [Example 24, 3-(pyridin-2-ylmethyl)-6-(4-(trifluoromethyl)phenyl)-3,4-dihydro-2H-benzo[e][1,3]oxazin-2-one] | 55.8 | 32.7 | 71.4 |
| CC(C)Oc1cc(C(F)(F)F)ccc1-c1ccc2c(c1)CN(Cc1ncccn1)C(=O)O2 [Example 25, 6-(2-isopropoxy-4-(trifluoromethyl)phenyl)-3-(pyrimidin-2-ylmethyl)-3,4-dihydro-2H-benzo[e][1,3]oxazin-2-one] | 54 | 29.9 | 72.1 |
| O=C1Oc2ccc(-c3ccc4c(c3)OC(F)(F)O4)cc2CN1Cc1ncccn1 [Example 26, 6-(2,2-difluorobenzo[d][1,3]dioxol-5-yl)-3-(pyrimidin-2-ylmethyl)-3,4-dihydro-2H-benzo[e][1,3]oxazin-2-one] | 35.2 | 28 | 71.1 |
| CCCOc1cc(C(F)(F)F)ccc1-c1ccc2c(c1)CN(Cc1ncccn1)C(=O)O2 [Example 27, 6-(2-propoxy-4-(trifluoromethyl)phenyl)-3-(pyrimidin-2-ylmethyl)-3,4-dihydro-2H-benzo[e][1,3]oxazin-2-one] | 60.1 | 42.2 | 80.6 |
| CCCOc1cc(OC(F)(F)F)ccc1-c1ccc2c(c1)CN(Cc1ncccn1)C(=O)O2 [Example 28, 6-(2-propoxy-4-(trifluoromethoxy)phenyl)-3-(pyrimidin-2-ylmethyl)-3,4-dihydro-2H-benzo[e][1,3]oxazin-2-one] | 45.4 | 17.1 | 58 |
| Cc1ccnc(CN2Cc3cc(-c4ccc(OC(F)(F)F)cc4)ccc3OC2=O)n1 [Example 29, 3-((4-methylpyrimidin-2-yl)methyl)-6-(4-(trifluoromethoxy)phenyl)-3,4-dihydro-2H-benzo[e][1,3]oxazin-2-one] | 61.6 | 36.1 | 81.7 |
| Cc1ccnc(CN2Cc3cc(-c4ccc(C(F)(F)F)cc4)ccc3OC2=O)n1 [Example 30, 3-((4-methylpyrimidin-2-yl)methyl)-6-(4-(trifluoromethyl)phenyl)-3,4-dihydro-2H-benzo[e][1,3]oxazin-2-one] | 54.5 | 47.1 | 79.6 |
| COc1cc(OC(F)(F)F)ccc1-c1ccc2c(c1)CN(Cc1nccc(C)n1)C(=O)O2 [Example 31, 6-(2-methoxy-4-(trifluoromethoxy)phenyl)-3-((4-methylpyrimidin-2-yl)methyl)-3,4-dihydro-2H-benzo[e][1,3]oxazin-2-one] | 34.4 | 13.2 | 45.7 |
| Cc1ccnc(CN2Cc3cc(-c4ccc(OC(F)(F)F)cc4F)ccc3OC2=O)n1 [Example 32, 6-(2-fluoro-4-(trifluoromethoxy)phenyl)-3-((4-methylpyrimidin-2-yl)methyl)-3,4-dihydro-2H-benzo[e][1,3]oxazin-2-one] | 43.4 | 8.1 | 41 |
| Cc1ccnc(CN2Cc3cc(-c4ccc(OC(F)(F)F)cc4C)ccc3OC2=O)n1 [Example 33, 6-(2-methyl-4-(trifluoromethoxy)phenyl)-3-((4-methylpyrimidin-2-yl)methyl)-3,4-dihydro-2H-benzo[e][1,3]oxazin-2-one] | 33 | 17.2 | 55.2 |
